Test results as given in patent US9127015B2, “Tricyclopyrazole derivatives” (NERVIANO MEDICAL SCIENCES S.R.L., priority 2009, dated 2015).
Several values for one entry are separate records, joined by “and”; a condition that tells them apart may be missing. Identical values can stand only once.

How the values were obtained:
Assay in all cases: Kinase inhibition assay, IC50 (Table A)
Format in all cases: biochemical
ACK1 = ACK1 (Homo sapiens, UniProt Q07912); conditions: Enzyme ACK1
Method: (§1) The inhibiting activity of putative kinase inhibitors and the potency of selected compounds is determined through a method of assay based on the use of the Kinase-Glo® Luminescent Kinase Assay (commercially available from Promega corporation and described in Koresawa, M. and Okabe, T. (2004) High-throughput screening with quantitation of ATP consumption: A universal non-radioisotope, homogeneous assay for protein kinase. Assay Drug Dev. Technol. 2, 153-60).
(§2) The inhibitory activity of putative kinase inhibitors and the potency of selected compounds were also determined using a trans-phosphorylation assay.
(§3) Specific peptide or protein substrates are trans-phosphorylated by their specific ser-thr or tyr kinase in the presence of ATP traced with ^33P-γ-ATP, and in the presence of their own optimal buffer and cofactors. At the end of the phosphorylation reaction, more than 98% unlabeled ATP and radioactive ATP is captured by an excess of the ion exchange dowex resin; the resin then settles down to the bottom of the reaction plate by gravity. Supernatant is subsequently withdrawn and transferred into a counting plate, then evaluated by β-counting.
(§4) Reaction conditions are target (enzyme) dependent and thus undergo individual adaptations. Also the buffer conditions may vary depending on the kinase of interest. The assay can be used with virtually any kinase and substrate combination and is suitable for all type of protein kinases, such as ABL, ACK1, AKT1, ALK, AUR1, AUR2, BRK, BUB1, CDC7/DBF4, CDK21CYCA, CHK1, CK2, EEF2K, EGFR1, EphA2, EphB4, ERK2, FAK, FGFR1, FLT3, GSK3beta, Haspin, IGFR1, IKK2, IR, JAK1, JAK2, JAK3, KIT, LCK, LYN, MAPKAPK2, MELK, MET, MNK2, MPSI, MST4, NEK6, NIM1, P38alpha, PAK-4, PDGFR, PDK1, PERK, PIM1, PIM2, PKAalpha, PKCbeta, PLK1, RET, ROS1, SULU1, Syk, TLK2, TRKA, TYK, VEGFR2, VEGFR3, ZAP70.

ABL = ABL (Homo sapiens, UniProt P00519); conditions: Enzyme ABL
Method: as §1, §2, §3, §4

KIT = KIT (Homo sapiens, UniProt P10721); conditions: Enzyme KIT
Method: as §1, §2, §3, §4

LCK = LCK (Homo sapiens, UniProt P06239); conditions: Enzyme LCK
Method: as §1, §2, §3, §4

BRK = BRK (Homo sapiens, UniProt Q13882); conditions: Enzyme BRK
Method: as §1, §2, §3, §4

ZAP70 = molecular target: T1, ZAP70 (Homo sapiens, UniProt P43403); conditions: Enzyme ZAP70
T1 sequence (P43403 1-619): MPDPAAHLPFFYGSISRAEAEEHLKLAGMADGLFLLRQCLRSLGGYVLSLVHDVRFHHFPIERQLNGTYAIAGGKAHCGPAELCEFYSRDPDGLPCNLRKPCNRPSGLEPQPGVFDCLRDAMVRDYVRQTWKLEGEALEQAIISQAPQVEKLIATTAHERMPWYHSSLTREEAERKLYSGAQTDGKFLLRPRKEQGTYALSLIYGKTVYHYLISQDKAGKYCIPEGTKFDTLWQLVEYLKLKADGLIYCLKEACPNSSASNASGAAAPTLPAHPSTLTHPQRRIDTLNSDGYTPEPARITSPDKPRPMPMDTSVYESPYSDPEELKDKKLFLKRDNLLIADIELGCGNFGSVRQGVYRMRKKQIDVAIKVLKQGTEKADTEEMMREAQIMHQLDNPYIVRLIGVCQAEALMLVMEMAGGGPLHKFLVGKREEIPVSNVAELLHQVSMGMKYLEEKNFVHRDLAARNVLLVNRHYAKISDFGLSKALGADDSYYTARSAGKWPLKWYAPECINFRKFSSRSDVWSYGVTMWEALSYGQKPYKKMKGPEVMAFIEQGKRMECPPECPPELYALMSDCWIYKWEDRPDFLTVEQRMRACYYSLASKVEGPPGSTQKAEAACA
Method: as §1, §2, §3, §4

MELK = MELK (Homo sapiens, UniProt Q14680); conditions: Enzyme MELK
Method: as §1, §2, §3, §4

Syk = Syk (Homo sapiens, UniProt P43405); conditions: Enzyme Syk
Method: as §1, §2, §3, §4

LYN = LYN (Homo sapiens, UniProt P07948); conditions: Enzyme LYN
Method: as §1, §2, §3, §4

FGFR1 = FGFR1 (Homo sapiens, UniProt P11362); conditions: Enzyme FGFR1
Method: as §1, §2, §3, §4

EGFR1 = EGFR1 (Homo sapiens, UniProt P00533); conditions: Enzyme EGFR1
Method: as §1, §2, §3, §4

ALK = ALK (Homo sapiens, UniProt Q9UM73); conditions: Enzyme ALK
Method: as §1
As example herein are reported the assay conditions used for testing the compounds of formula (I) against ALKtide YFF APCo kinase; • ATP concentration: 1 μM • Enzyme concentration: 100 nM • Reaction buffer: Hepes 50 mM pH 7.5, MgCl2 5 mM, MnCl2 1 mM, DTT 1 mM, Na3VO4 3 uM, 0.2 mg/ml BSA. • Assay procedure: add 5 ul compound of formula (I) (3×), add 5 μl ATP/S mix (3×) in buffer 1×; add 5 μl enzyme in buffer 2×+3×BSA; for the blank, add 5 μl buffer 2×+3×BSA without enzyme. After 90 minutes of incubation, add 15 μl/well of Kinase-Glo reagent. After 60-90 minutes of incubation to stabilize the luminescent signal, the plates are read on a ViuwLux instrument.
as §2, §3
Reaction conditions are target (enzyme) dependent and thus undergo individual adaptations. Also the buffer conditions may vary depending on the kinase of interest. […]

PKCbeta = PKCbeta (Homo sapiens, UniProt P05771); conditions: Enzyme PKCbeta
Method: as §1, §2, §3, §4

VEGFR3 = VEGFR3 (Homo sapiens, UniProt P35916); conditions: Enzyme VEGFR3
Method: as §1, §2, §3, §4

Sequence of LCK (P06239 whole entry): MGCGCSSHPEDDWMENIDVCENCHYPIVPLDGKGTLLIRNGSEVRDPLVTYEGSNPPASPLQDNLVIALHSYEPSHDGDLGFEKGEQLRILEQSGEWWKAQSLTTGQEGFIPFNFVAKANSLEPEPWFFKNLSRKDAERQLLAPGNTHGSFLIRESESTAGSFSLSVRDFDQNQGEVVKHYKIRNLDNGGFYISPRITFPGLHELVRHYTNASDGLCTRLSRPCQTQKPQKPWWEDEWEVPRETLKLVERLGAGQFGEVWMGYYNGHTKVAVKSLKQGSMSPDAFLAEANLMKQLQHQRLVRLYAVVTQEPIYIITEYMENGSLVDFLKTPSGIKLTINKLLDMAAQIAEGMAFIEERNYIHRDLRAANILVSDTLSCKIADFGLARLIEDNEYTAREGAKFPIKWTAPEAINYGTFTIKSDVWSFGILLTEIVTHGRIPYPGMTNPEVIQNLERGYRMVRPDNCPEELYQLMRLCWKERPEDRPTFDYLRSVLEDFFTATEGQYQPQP
Sequence of ACK1 (Q07912 whole entry): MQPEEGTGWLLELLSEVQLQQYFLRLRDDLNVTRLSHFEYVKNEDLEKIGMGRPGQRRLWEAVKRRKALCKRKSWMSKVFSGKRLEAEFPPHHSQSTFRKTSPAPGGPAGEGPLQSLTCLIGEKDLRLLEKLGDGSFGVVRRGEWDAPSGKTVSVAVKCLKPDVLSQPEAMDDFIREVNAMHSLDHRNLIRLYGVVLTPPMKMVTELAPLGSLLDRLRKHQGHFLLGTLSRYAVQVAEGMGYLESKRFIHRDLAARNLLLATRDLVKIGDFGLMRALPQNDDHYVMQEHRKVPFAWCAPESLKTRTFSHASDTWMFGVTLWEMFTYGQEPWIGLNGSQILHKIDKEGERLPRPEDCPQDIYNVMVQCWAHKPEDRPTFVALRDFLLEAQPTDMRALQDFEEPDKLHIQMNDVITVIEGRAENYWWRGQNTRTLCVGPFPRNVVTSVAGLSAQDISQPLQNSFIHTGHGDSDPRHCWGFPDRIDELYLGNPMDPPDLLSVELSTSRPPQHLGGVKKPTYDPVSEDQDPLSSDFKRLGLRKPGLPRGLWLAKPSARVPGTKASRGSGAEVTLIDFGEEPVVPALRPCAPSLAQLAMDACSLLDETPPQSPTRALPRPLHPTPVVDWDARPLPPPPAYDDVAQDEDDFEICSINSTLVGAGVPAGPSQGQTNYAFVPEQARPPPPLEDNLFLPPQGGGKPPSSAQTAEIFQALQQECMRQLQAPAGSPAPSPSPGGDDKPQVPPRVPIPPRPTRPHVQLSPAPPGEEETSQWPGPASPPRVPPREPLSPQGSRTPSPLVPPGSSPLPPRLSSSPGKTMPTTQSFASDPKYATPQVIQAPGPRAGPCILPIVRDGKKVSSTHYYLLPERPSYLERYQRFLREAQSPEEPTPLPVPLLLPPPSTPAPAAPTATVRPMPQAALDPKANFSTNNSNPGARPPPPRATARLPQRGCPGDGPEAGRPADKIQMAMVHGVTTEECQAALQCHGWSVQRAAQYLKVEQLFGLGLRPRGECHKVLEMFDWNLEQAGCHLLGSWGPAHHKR
Sequence of MELK (Q14680 whole entry): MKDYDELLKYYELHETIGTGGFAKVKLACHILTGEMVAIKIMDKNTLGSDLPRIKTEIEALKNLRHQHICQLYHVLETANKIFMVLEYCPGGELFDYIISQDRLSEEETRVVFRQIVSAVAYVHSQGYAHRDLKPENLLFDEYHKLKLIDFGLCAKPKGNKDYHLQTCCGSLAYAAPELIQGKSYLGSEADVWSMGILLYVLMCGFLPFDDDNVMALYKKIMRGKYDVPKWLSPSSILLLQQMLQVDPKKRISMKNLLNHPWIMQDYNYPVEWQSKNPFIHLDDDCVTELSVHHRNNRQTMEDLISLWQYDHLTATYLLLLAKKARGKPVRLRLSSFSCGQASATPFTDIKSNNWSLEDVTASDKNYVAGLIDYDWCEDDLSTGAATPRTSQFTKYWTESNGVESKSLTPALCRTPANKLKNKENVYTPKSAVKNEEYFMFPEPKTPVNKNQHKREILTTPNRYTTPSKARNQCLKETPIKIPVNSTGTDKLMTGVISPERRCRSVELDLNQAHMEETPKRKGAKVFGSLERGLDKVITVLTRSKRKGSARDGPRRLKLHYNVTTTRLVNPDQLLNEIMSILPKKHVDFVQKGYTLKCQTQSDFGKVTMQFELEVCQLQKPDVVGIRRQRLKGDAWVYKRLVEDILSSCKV
Sequence of BRK (Q13882 whole entry): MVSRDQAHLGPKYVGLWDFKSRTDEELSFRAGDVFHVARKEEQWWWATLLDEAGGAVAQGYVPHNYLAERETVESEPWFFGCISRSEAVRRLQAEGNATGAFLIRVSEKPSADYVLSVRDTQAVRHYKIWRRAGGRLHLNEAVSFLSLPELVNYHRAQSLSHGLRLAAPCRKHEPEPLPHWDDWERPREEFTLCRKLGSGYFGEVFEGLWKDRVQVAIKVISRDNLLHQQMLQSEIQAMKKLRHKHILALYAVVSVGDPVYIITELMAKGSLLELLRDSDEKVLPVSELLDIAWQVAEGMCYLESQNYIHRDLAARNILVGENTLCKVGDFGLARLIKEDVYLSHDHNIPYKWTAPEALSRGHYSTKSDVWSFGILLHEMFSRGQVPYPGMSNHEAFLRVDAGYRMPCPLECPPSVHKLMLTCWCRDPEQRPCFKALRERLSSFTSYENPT
Sequence of KIT (P10721 26-976): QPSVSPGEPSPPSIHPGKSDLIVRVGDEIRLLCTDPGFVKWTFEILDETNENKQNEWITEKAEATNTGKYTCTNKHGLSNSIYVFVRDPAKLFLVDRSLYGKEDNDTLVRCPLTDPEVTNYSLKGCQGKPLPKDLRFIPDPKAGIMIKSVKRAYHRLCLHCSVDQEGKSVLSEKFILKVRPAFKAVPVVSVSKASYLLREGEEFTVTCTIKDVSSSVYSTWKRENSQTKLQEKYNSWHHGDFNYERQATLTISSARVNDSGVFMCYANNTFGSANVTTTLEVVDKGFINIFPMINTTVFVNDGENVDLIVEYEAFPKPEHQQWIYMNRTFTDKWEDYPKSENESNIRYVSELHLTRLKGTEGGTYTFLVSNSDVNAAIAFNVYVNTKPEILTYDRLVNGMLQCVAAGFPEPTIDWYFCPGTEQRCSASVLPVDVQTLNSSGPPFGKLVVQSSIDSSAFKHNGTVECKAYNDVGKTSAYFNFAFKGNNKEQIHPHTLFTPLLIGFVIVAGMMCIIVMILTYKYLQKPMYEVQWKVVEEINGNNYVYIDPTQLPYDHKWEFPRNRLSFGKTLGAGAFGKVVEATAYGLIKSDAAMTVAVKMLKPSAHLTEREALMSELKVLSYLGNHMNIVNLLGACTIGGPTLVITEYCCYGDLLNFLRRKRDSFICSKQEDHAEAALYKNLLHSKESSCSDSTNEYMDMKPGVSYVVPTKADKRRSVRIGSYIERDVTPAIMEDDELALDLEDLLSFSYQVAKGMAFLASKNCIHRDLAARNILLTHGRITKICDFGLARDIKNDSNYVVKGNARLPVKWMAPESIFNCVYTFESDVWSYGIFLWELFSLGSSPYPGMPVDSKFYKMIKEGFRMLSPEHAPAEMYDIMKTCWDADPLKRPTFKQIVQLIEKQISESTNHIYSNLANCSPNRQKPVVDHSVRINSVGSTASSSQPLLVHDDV
Sequence of ABL (P00519 whole entry): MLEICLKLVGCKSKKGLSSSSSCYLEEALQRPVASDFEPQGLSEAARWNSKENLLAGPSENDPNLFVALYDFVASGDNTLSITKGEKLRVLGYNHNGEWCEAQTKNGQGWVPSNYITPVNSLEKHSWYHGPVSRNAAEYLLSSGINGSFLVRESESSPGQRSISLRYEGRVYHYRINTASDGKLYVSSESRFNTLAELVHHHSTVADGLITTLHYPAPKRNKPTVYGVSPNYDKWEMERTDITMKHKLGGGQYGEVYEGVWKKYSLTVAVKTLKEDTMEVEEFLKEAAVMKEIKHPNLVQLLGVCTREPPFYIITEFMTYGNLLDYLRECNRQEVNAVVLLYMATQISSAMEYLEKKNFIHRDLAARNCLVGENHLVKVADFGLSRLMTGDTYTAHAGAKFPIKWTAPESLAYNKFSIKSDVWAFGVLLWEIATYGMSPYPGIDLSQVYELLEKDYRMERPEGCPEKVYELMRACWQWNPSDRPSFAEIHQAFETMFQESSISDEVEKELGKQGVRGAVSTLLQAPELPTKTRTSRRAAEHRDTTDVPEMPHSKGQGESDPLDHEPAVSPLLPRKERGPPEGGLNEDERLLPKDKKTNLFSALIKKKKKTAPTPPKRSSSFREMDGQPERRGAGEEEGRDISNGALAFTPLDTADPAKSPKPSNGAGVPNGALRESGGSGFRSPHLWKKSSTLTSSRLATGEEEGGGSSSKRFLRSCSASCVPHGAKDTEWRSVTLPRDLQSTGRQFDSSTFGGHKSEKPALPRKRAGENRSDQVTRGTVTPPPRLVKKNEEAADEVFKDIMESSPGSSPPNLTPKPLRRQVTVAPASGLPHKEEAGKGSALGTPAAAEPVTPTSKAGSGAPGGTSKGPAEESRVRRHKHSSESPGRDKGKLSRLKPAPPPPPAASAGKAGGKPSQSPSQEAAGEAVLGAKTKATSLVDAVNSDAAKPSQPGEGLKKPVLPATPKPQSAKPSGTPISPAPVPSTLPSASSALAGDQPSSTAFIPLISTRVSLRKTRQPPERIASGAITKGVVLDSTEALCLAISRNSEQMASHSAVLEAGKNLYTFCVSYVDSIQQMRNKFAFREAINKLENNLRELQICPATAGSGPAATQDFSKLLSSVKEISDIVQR

| SMILES | IC50 (ACK1) | IC50 (ABL) [nM] | IC50 (KIT) [nM] | IC50 (LCK) [nM] | IC50 (BRK) [nM] | IC50 (ZAP70) [nM] | IC50 (MELK) [nM] | IC50 (Syk) [nM] | further results |
| --- | --- | --- | --- | --- | --- | --- | --- | --- | --- |
| O=C(NCC1CC1)c1cc2n(c1)CCc1c(NC(=O)c3c(Cl)cccc3Cl)n[nH]c1-2 [Example A38-M1-B41] |  |  |  | 4130 |  |  |  |  |  |
| CCN1CCN(C(=O)c2cc3n(c2)CCCc2c(NC(=O)c4cc(C)cc(C)c4)n[nH]c2-3)CC1 [Example A24-M2-B37] |  |  |  |  |  | 1150 | 3000 | 2780 |  |
| Cc1ccc(C(=O)Nc2n[nH]c3c2CCn2cc(C(=O)N4CCCC4)cc2-3)c(C)c1 [Example A35-M1-B8, 2,4-dimethyl-N-[8-(pyrrolidin-1-ylcarbonyl)-4,5-dihydro-1H-pyrazolo[4,3-g]indolizin-3-yl]benzamide] | 490 nM and 300 nM | 3500 | 3520 |  |  |  |  |  | IC50 (LYN): 2130 nM |
| CCS(=O)(=O)Nc1n[nH]c2c1CCCn1cc(C(=O)NCCOC)cc1-2 [Example A42-M2-B33] |  |  |  |  |  | 1830 |  | 3150 |  |
| Cc1ccc(C(=O)Nc2n[nH]c3c2CCn2cc(C(=O)N4CCC(N5CCCCC5)CC4)cc2-3)c(C)c1 [Example A35-M1-B34] | 1080 nM and 1580 nM | 4310 |  | 3500 | 4350 |  |  |  | IC50 (PKCbeta): 4170 nM; IC50 (FGFR1): 5760 nM; IC50 (VEGFR3): 3980 nM; IC50 (ALK): 4910 nM |
| O=C(Nc1n[nH]c2c1CCn1cc(C(=O)N3CCC(N4CCCCC4)CC3)cc1-2)c1ccccc1Cl [Example A5-M1-B34] | 360 nM | 820 | 4130 | 3990 | 860 |  |  |  | IC50 (VEGFR3): 4940 nM; IC50 (ALK): 5810 nM |
| CC(C)(C)C(=O)Nc1n[nH]c2c1CCCn1cc(C(=O)N3CCC(N4CCCCC4)CC3)cc1-2 [Example A33-M2-B34] | 1440 nM |  |  |  |  | 720 | 1230 | 480 |  |
| Cc1ccc(C(=O)Nc2n[nH]c3c2CCCn2cc(C(=O)N4CCCC4)cc2-3)cc1F [Example A30-M2-B8] |  |  |  |  |  | 590 | 2570 | 2100 |  |

More lines, main results first:

| IC50 (ACK1) | IC50 (ABL) [nM] | IC50 (KIT) [nM] | IC50 (LCK) [nM] | IC50 (BRK) [nM] | IC50 (ZAP70) [nM] | IC50 (MELK) [nM] | IC50 (Syk) [nM] | SMILES | further results |
| --- | --- | --- | --- | --- | --- | --- | --- | --- | --- |
| 960 nM | 400 | 1830 | 1150 | 4350 |  |  |  | O=C(NCC1CC1)c1cc2n(c1)CCc1c(NC(=O)c3ccccc3Cl)n[nH]c1-2 [Example A5-M1-B41] |  |
|  |  |  |  |  | 1560 |  |  | O=C(NCc1ccncc1)c1cc2n(c1)CCCc1c(NC(=O)c3ccccc3)n[nH]c1-2 [Example A1-M2-B25] |  |
|  |  |  |  |  | 800 | 3090 | 1630 | O=C(Nc1n[nH]c2c1CCCn1cc(C(=O)NC3CCCC3)cc1-2)c1cccnc1 [Example A32-M2-B28] |  |
| 1010 nM | 540 | 1310 | 590 | 4680 |  |  |  | O=C(NCCN1CCCC1)c1cc2n(c1)CCc1c(NC(=O)c3ccccc3Cl)n[nH]c1-2 [Example A5-M1-B43] | IC50 (FGFR1): 7270 nM; IC50 (EGFR1): 7870 nM; IC50 (ALK): 3400 nM |
| 3340 nM | 3230 | 5030 | 5140 |  |  |  |  | C=CCNC(=O)c1cc2n(c1)CCc1c(NC(=O)c3ccccc3C)n[nH]c1-2 [Example A21-M1-B36] |  |
